How the values were obtained:
[1] = molecular target: T1, CtBP2-p300^BRD interaction (Mus musculus, UniProt B2RWS6+P56546); assay: In vitro pulldown assay with His-CtBP2 and GST-p300^BRD; type: binding; conditions: PNSC928 0, 11.8, 23.6, and 47.2 µM; 80 nM GST-p300^BRD and 40 nM His-CtBP2
T1 construct: R1 (1-1000 amino acids, aa), R2 (1001–1201 aa), R3 (1202–1810 aa); made in house; host or cells: E. coli BL21
Description: Fig. 4 Identification of PNSC928 and determination of its in vitro and in vivo effects on disruption of CtBP2-p300 interaction. (A) A schematic representation illustrating four regions of the p300 amino acid sequence. (B) Co-IP results. Different combinations of plasmids were cotransfected into MPAEpiC cells. After a 48-hour incubation, cells were lysed and used for immunoprecipitation with anti-Flag agarose. The input and output proteins were probed with anti-Flag and anti-Myc antibodies. n = 3. (C) A schematic representation illustrating the in vitro AlphaScreen setup. (D) AlphaScreen signals for different concentrations of His-CtBP2 and GST-p300^BRD. (E) Chemical structure of PNSC928. (F) IC50 of PNSC928 disrupting CtBP2-p300^BRD interaction. (G and H) In vitro pulldown assay in a reaction consisting of His-CtBP2, GST-p300^BRD, and incremental concentrations of PNSC928 (0, 11.8, 23.6, and 47.2 µM). (G) Pulldown with Ni-NTA beads; (H) Pulldown with GST beads.
To probe this interaction, we established an AlphaScreen system that utilized GST-p300^BRD and His-CtBP2, binding to donor and acceptor beads, respectively (Fig. 4C). […] In vitro assays assessed the effects of PNSC928 on the CtBP2-p300^BRD interaction. […] Furthermore, we assessed the impact of combined LPS and PNSC928 treatment on the expression of key molecules in the NF-κB signaling pathway.

ARDS mice = assay: LPS-induced ARDS mouse model; type: in vivo
Description: All animal experiments were performed following a protocol reviewed and approved by the Institutional Animal Care and Use Committee at Jiangxi Provincial People’s Hospital. We procured C57BL/6 mice from Charles River Laboratories (Beijing, China) and maintained them in specific pathogen-free (SPF) conditions, with a 12-hour light/dark cycle and free access to food and sterile water. We established the ARDS mouse model by administering LPS via tracheal intubation, following an established protocol. Briefly, mice (eight-week-old, half male and half female, 22–25 g) were anesthetized using isoflurane inhalation and randomly classified into Control and ARDS groups. Control mice received 50 µL sterile saline, while ARDS mice were given 25 µg LPS (Sigma-Aldrich, Shanghai, China; #LPS25) in 50 µL sterile saline. Mice were immediately positioned upright and rotated to evenly distribute the LPS within the lungs.
To assess the impact of CtBP2, p300, NF-κB inhibitors, and PNSC928 on ARDS progression, mice were further categorized post-4 h LPS administration into different groups: ARDS, ARDS + MTOB (700 mg/kg; MedChemExpress; Monmouth Junction, NJ; #HY-135,046), ARDS + NSC95397 (1.5 mg/kg; MedChemExpress; #HY-108,543), ARDS + C646 (10 mg/kg; MedChemExpress; #HY-13,823), ARDS + A-485 (50 mg/kg; MedChemExpress; #HY-107,455), ARDS + TPCA1 (10 mg/kg; MedChemExpress; #HY-10,074), ARDS + BOT64 (50 mg/kg; MedChemExpress; #HY-136,741), and ARDS + PNSC928 (20 mg/kg). Mice received these compounds daily for two days. Body weight and temperature were recorded every 24 h. At 48 h post-LPS challenge, mice were sacrificed, and blood samples and lung tissues were harvested.
To collect bronchoalveolar lavage fluid (BALF), the Control, ARDS, and ARDS + PNSC928 groups of mice (n = 10 for each group) were anesthetized with isoflurane inhalation in accordance with institutional guidelines. Mice were placed on their backs, and a small incision was made at the base of the neck to expose the trachea. A flexible catheter was inserted into the trachea and secured with a suture. A syringe filled with sterile phosphate-buffered saline (PBS) (Thermo Fisher, Shanghai, China; #10,010,023) was attached to the catheter, and 1.5 mL of PBS was gently instilled into the right lungs. After allowing the fluid to sit for 10 s, it was aspirated back into the syringe. This process was repeated three times to ensure thorough lavage. The collected BALF was kept on ice in a sterile tube, then centrifuged at 1,000 × g for 10 min at 4 °C to pellet the cells. The supernatant was stored at -80 °C for further analyses.
Whole blood samples were allowed to stand undisturbed at room temperature for 15 min before being centrifuged at 1,000 × g for 10 min. The supernatant serum and BALF were used to measure concentrations of IL-1β, IL-6, IL-15, IL-18, and TNF-α with specific enzyme-linked immunosorbent assay (ELISA) kits as per manufacturer guidelines. The ELISA kits used were: IL-1β (Thermo Fisher; #KMC0011), IL-6 (Thermo Fisher; #KMC0061), IL-15 (Abcam; Shanghai, China; #ab275898), IL-18 (Thermo Fisher; #BMS618-3), and TNF-α (Thermo Fisher; #BMS607-3). Total BALF protein levels were measured using the BCA Protein Assay Kit (Abcam; #ab102536) according to the manufacturer’s protocol.
MPO activity was determined according to a previously established protocol. Briefly, lung tissues (50 mg per mouse) were washed with ice-cold PBS to remove residual blood, then homogenized in a buffer containing 2.5 g of hexadecyltrimethylammonium bromide (Sigma-Aldrich; # H5882) dissolved in 500 mL of PBS. The tissue homogenate was kept on ice for 30 min before centrifugation at 16,000 × g for 10 min at 4 °C. The supernatant was used to measure MPO activity with the Myeloperoxidase Activity Assay Kit (Abcam; #ab105136) according to the manufacturer’s method.
The right upper lobe of the lung was excised, rinsed with PBS, blotted dry, and weighed to determine the “wet” weight. […]

[2] = ARDS mice, 25 μg LPS + 20 mg/kg PNSC928

T1 sequence (B2RWS6 1001-1201 limits assumed): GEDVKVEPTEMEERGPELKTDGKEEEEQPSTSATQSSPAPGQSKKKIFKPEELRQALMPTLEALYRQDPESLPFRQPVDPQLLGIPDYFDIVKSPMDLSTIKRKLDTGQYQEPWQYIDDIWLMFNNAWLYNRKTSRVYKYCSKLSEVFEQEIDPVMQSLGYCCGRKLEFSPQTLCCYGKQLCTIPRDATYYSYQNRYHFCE
T1 sequence (P56546 whole entry, the tested form may be a part): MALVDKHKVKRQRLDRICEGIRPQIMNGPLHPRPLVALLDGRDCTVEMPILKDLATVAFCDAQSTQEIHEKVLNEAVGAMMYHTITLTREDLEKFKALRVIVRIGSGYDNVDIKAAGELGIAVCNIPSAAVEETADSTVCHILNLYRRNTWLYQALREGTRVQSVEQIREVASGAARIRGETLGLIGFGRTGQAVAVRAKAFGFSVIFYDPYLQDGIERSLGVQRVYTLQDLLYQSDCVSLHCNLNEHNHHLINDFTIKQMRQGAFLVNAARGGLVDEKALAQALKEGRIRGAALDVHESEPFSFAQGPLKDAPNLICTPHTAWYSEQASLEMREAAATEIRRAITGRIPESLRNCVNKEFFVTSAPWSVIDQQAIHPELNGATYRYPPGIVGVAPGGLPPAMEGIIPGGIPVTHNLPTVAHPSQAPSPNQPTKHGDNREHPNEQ

Compound: CC(=CCCC1=CCC(C2COC(=O)C2)OC1O)CCC1=C(C)CCCC1(C)C (centres unmarked) [PNSC928]
- Effect on CtBP2-p300^BRD interaction in pulldown assay [1]: disrupts the CtBP2-p300^BRD interaction in a dose-dependent manner
- Lung wet-to-dry weight ratio (ARDS mice; [2]): significant reduction
- MPO activity in lung tissues (ARDS mice; [2]): significant reduction
- Survival rate of ARDS mice (ARDS mice; [2]): enhancing the survival rate
- Total BALF protein levels (ARDS mice; [2]): significant reduction
- Lung expressions of IL-1B, IL-6, IL-15, IL-18, TNFA, and IFNG (RT-qPCR) (ARDS mice; ARDS mice, PNSC928 20 mg/kg): significantly reduced
- Lung expressions of S100A8, ICAM1, SPP1, FBN1, and SPSB1 (RT-qPCR) (ARDS mice; ARDS mice, PNSC928 20 mg/kg): without notably altering
- Serum and BALF concentrations of pro-inflammatory cytokines (ELISA) (ARDS mice; ARDS mice, PNSC928 20 mg/kg from 4 h post-LPS, daily for two days): significantly abated
- Serum and BALF pro-inflammatory cytokine levels in comparison to control mice (ARDS mice; ARDS mice, PNSC928 20 mg/kg from 4 h post-LPS, elevated vs control mice): 1.3–1.5 fold
- Decrease in body weights and respiratory distress (pO2) caused by LPS (ARDS mice; ARDS mice, PNSC928 20 mg/kg, measured at 0, 1, and 2 days): alleviated
- Lung damage by histological examination (H&E, histological scores) (ARDS mice; LPS-challenged mice, PNSC928 20 mg/kg): recovered lung damage
